Results as given in patent US6506876B1, “LTA4 hydrolase inhibitor pharmaceutical compositions and methods of use” (G.D. Searle & Co., priority 1994, dated 2003).
Values joined by “and” are separate entries in the source; they are usually repeats but may differ in a detail not shown here. Equal values may be shown once. Where a name gives a salt, the structure may show the parent alone.

Biological target: T1, recombinant human LTA4 hydrolase (rhLTA4H) (Homo sapiens, UniProt P09960)
T1 sequence (P09960 1-611): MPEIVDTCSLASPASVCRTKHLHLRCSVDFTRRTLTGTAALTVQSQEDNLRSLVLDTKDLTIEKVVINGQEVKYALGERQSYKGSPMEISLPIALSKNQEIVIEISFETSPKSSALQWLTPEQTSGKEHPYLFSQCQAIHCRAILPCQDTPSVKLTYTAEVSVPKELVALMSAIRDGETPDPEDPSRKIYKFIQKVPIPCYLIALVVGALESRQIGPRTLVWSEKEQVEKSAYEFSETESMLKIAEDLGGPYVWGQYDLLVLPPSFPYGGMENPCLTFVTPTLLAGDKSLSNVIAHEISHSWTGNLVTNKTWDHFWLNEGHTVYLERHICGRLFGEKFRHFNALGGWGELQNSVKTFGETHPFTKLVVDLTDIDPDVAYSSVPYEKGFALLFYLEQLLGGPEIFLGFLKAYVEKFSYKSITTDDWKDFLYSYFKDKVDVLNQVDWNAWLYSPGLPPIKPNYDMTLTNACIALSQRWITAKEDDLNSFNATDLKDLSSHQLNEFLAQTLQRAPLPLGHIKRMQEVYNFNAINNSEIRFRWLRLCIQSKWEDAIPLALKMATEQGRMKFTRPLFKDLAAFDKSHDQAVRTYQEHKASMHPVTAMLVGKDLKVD
Assay: Recombinant human LTA4 hydrolase assay for LTA4 hydrolase inhibitor activity
Details: for IC50: Recombinant Human LTA4 Hydrolase Assay IC50 LTA4H, recombinant hLTA4H; for inhibition at 3 µM: read-out: Recombinant Human LTA4 Hydrolase Assay, % at 3 μM; for inhibition at 100 µM: read-out: Recombinant Human LTA4 Hydrolase Assay, % at 100 μM

Row | Compound | IC50 | further results
1 | c1ccc(Cc2ccc(OCCn3ccc4ncnc-4c3)cc2)cc1 [340 A] | 11 nM | –
2 | c1ccc(Cc2ccc(OCCCn3cnc4cccnc43)cc2)cc1 [341 A] | 5700 nM | –
3 | c1ccc(COc2ccc(OCCn3cnc4cccnc43)cc2)cc1 [346 A] | – | inhibition at 3 µM: 31%
4 | c1ccc(COc2ccc(OCCn3cccc4ncnc3-4)cc2)cc1 [346 C] | 2200 nM | –
5 | c1ccc(Oc2ccc(OCCCn3cnc4cccnc43)cc2)cc1 [350 A] | 19000 nM | –
6 | c1ccc(Oc2ccc(OCCCn3cnc4ccncc43)cc2)cc1 [351 A] | 1080 nM | –
7 | Fc1ccc(Oc2ccc(OCCn3cnc4cccnc43)cc2)cc1 [354 A] | – | inhibition at 3 µM: 51%
8 | c1ccc(Cc2ccc(OCCn3cnc4cncnc43)cc2)cc1 [357 B] | 730 nM | –
9 | c1ccc(Cc2ccc(OCCn3cncc4ncnc3-4)cc2)cc1 [357 D] | 40 nM | –
10 | c1ccc(Cc2ccc3c(c2)CC(Cn2cnc4cccnc42)O3)cc1 (stereo not shown) [359 A] | 100000 nM | –
11 | c1ccc(Cc2ccc3c(c2)CC(Cn2cnc4ncccc42)O3)cc1 (stereo not shown) [359 B] | 10000 nM | –
12 | c1ccc(Cc2ccc3c(c2)CC(Cn2cccc4ncnc2-4)O3)cc1 (stereo not shown) [359 C] | 3500 nM | –
13 | c1ccc(Cc2ccc3c(c2)CC(Cn2nnc4cccnc42)O3)cc1 (stereo not shown) [360 A] | – | inhibition at 100 µM: 36%
14 | c1ccc(Cc2ccc3c(c2)CC(Cn2nc4cccnc4n2)O3)cc1 (stereo not shown) [360 B] | – | inhibition at 100 µM: 19%
15 | c1ccc(Cc2ccc3c(c2)CC(Cn2nnc4ncccc42)O3)cc1 (stereo not shown) [360 C] | 5000 nM | –
16 | c1ccc(Cc2ccc3c(c2)CC(Cn2nc4ccncc4n2)O3)cc1 (stereo not shown) [361 A] | – | inhibition at 100 µM: 24%
17 | c1ccc(Cc2ccc3c(c2)CC(Cn2nnc4cnccc42)O3)cc1 (stereo not shown) [361 B] | 7000 nM | –
18 | O=C(O)c1ccc(-c2ccc(OCCN3CCCC3)cc2)cc1 [Example 63, 4-[4-[2-(1-pyrrolidinyl)ethoxy]phenyl]benzoic acid] | – | Recombinant Human LTA4 Hydrolase Assay, % at 25 μM: 40% at 25
19 | O=C(O)c1ccc(Oc2ccc(OCCN3CCCC3)cc2)cc1 [Example 64, 4-[4-[2-(1-pyrrolidinyl)ethoxy]phenoxy]benzoic acid] | – | Recombinant Human LTA4 Hydrolase Assay, % at 25 μM: 52% at 25
20 | Fc1cc(OCCN2CCCC2)c(F)cc1Cc1ccccc1 [Example 120] | 8000 nM | –

Row | Compound | IC50 | further results
21 | c1ccc2cc(COc3ccc(OCCN4CCCC4)cc3)ccc2c1 [Example 200] | 350 nM | –
22 | c1ccc2ncc(COc3ccc(OCCN4CCCC4)cc3)cc2c1 [Example 201] | 330 nM | –
23 | Cc1nc(COc2ccc(OCCN3CCCC3)cc2)cs1 [Example 202] | – | inhibition at 3 µM: 44%
24 | Brc1ccc(COc2ccc(OCCN3CCCC3)cc2)cc1 [Example 203] | 380 nM | –
25 | Clc1cccc(Cl)c1COc1ccc(OCCN2CCCC2)cc1 [Example 204] | – | Recombinant Human LTA4 Hydrolase Assay, % at 25 μM: 49% at 25
26 | Fc1ccc(COc2ccc(OCCN3CCCC3)cc2)cc1 [Example 205] | 900 nM | –
27 | Clc1cccc(COc2ccc(OCCN3CCCC3)cc2)c1 [Example 206] | 200 nM | –
28 | Fc1ccccc1COc1ccc(OCCN2CCCC2)cc1 [Example 207] | 220 nM | –
29 | Cc1ccccc1COc1ccc(OCCN2CCCC2)cc1 [Example 210] | – | Recombinant Human LTA4 Hydrolase Assay, % at 25 μM: 4% at 25 μM
30 | COc1ccc(COc2ccc(OCCN3CCCC3)cc2)cc1 [Example 213] | 1300 nM | –
31 | c1ccc2c(COc3ccc(OCCN4CCCC4)cc3)cccc2c1 [Example 214] | 2800 nM | –
32 | NC(=O)C1CCN(CCCOc2ccc(Cc3ccccc3)cc2)CC1 [Example 226] | – | inhibition at 100 µM: 4%
33 | O=C(OCc1ccccc1)[C@@H]1CCCN1CCCOc1ccc(Cc2ccccc2)cc1 [Example 228] | – | inhibition at 3 µM: 28%
34 | NC(=O)C1CCN(CCOc2ccc(Cc3nccs3)cc2)CC1 [Example 231] | 5000 nM | –
35 | COc1ccc(Cc2ccc(OCCN3CCC(C(N)=O)CC3)cc2)cc1 [Example 232] | 2100 nM | –
36 | NC(=O)C1CCN(CCOc2ccc(Cc3ccc(Cl)cc3)cc2)CC1 [Example 234] | 8000 nM | –
37 | NC(=O)C1CCN(CCOc2ccc(Cc3ccc(F)cc3)cc2)CC1 [Example 235] | 10000 nM | –
38 | NC(=O)C1CCN(CCOc2ccc(Cc3cccnc3)cc2)CC1 [Example 236] | 20000 nM | –
39 | NC(=O)C1CCCN(CCCOc2ccc(Cc3ccccc3)cc2)C1 (stereo not shown) [Example 244] | – | inhibition at 100 µM: 15%
40 | CNC(=O)C1CCN(CCOc2ccc(Oc3ccccc3)cc2)CC1 [Example 255] | 280 nM | –

Row | Compound | IC50 | further results
41 | CC(C)(C)OC(=O)C1CCCN1CCCOc1ccc(Cc2ccccc2)cc1 (stereo not shown) [Example 260] | – | inhibition at 3 µM: 14%
42 | O=C(CCNCCCOc1ccc(Cc2ccccc2)cc1)OCc1ccccc1 [Example 261] | 1250 nM | –
43 | CC(C)(C)OC(=O)CCNCCCOc1ccc(Cc2ccccc2)cc1 [Example 268] | – | inhibition at 3 µM: 53%
44 | CCOC(=O)CCNCCCCCOc1ccc(Cc2ccccc2)cc1 [Example 274] | 800 nM | –
45 | CC1(CN2CCC(C(N)=O)CC2)Cc2cc(Cc3ccccc3)ccc2O1 (stereo not shown) [Example 286] | – | inhibition at 100 µM: 41%
46 | CCOC(=O)CC1CCN(CCCOc2ccc(Cc3ccccc3)cc2)CC1 [Example 302] | 3000 nM | –
47 | CCOC(=O)C1CCN(CCOc2ccc(Cc3cccnc3)cc2)CC1 [Example 311] | – | inhibition at 100 µM: 44%
48 | CCOC(=O)C1CCN(CCOc2ccc(Cc3ccc(F)cc3)cc2)CC1 [Example 312] | – | inhibition at 100 µM: 46%
49 | CCOC(=O)C1CCN(CCOc2ccc(Cc3ccsc3)cc2)CC1 [Example 313] | 25000 nM | –
50 | COc1ccc(Cc2ccc(OCCN3CCC(C(N)=O)CC3)cc2)cc1F [Example 314] | 1500 nM | –
51 | O=C(CNCCOc1ccc(Cc2ccccc2)cc1)OCc1ccccc1 [Example 319] | – | inhibition at 100 µM: 47%
52 | COC(=O)CCN(C)CCCOc1ccc(Cc2ccc(F)cc2)cc1 [Example 332] | 14000 nM | –
53 | c1ccc(Cc2ccc(OCCn3ccc4ncccc43)cc2)cc1 [Example 342] | 970 nM | –
54 | c1ccc(Oc2ccc(OCCCn3cnc4ccccc43)cc2)cc1 [Example 343] | – | inhibition at 3 µM: 40%
55 | c1ccc(Oc2ccc(OCCn3cnc4ccccc43)cc2)cc1 [Example 344] | 11100 nM | –
56 | c1ccc(COc2ccc(OCCn3cnc4ccccc43)cc2)cc1 [Example 345] | – | inhibition at 3 µM: 35%
57 | [O-][n+]1ccc2ncn(CCOc3ccc(Cc4ccccc4)cc3)c2c1 [Example 364] | 36 nM | –
58 | O=C(O)C1CCN(CCOc2ccc(Cc3ccccc3)s2)CC1 [Example 371] | 860 nM | –

More lines, main results first:

Row | IC50 | Compound | further results
59 | 2500 nM | CCOC(=O)[C@@H]1CCN(CCOc2ccc(Cc3ccccc3)cc2)[C@H](C)C1 (relative stereo) [Example 298] | –
60 | 110 nM | c1ccc(Oc2ccc(OCCN3CCCC3)nc2)cc1 [Example 65, 5-phenoxy-2-[2-(1-pyrrolidinyl)ethoxy]pyridine] | –
61 | 6500 nM | c1ccc(Oc2ccc(NCCN3CCCC3)cc2)cc1 [Example 71, N-(4-phenoxyphenyl)-1-pyrrolidine ethanamine, monohydrochloride] | –
62 | 3000 nM | Clc1cc(OCCN2CCCC2)ccc1Cc1ccccc1 [Example 114] | –
63 | 3900 nM | Cc1cc(Cc2ccccc2)ccc1OCCN1CCCC1 [Example 117] | –
64 | 9000 nM | Cc1cc(OCCN2CCCC2)ccc1Cc1ccccc1 [Example 118] | –
65 | 4000 nM | Fc1cc(Cc2ccccc2)cc(F)c1OCCN1CCCC1 [Example 119] | –
66 | 7000 nM | COC(=O)c1cc(Cc2ccccc2)ccc1OCCN1CCCC1 [Example 123] | –
67 | 25000 nM | COc1cc(Cc2ccccc2)ccc1OCCN1CCCC1 [Example 124] | –
68 | 16000 nM | COc1ccccc1Cc1ccc(OCCN2CCCC2)cc1 [Example 129] | –
69 | 170 nM | c1cc(OCCN2CCCC2)ccc1Cc1ccc2c(c1)OCO2 [Example 130] | –
70 | 4300 nM | c1ccc2nc(Cc3ccc(OCCN4CCCC4)cc3)ccc2c1 [Example 131] | –
71 | 13 nM | Fc1ccccc1Cc1ccc(OCCN2CCCC2)cc1 [Example 141] | –
72 | 56 nM | Clc1cccc(Cc2ccc(OCCN3CCCC3)cc2)c1 [Example 143] | –
73 | 80 nM | COc1ccc(Cc2ccc(OCCN3CCCC3)cc2)cc1F [Example 144] | –
74 | 3000 nM | Cc1ccc(COc2ccc(OCCN3CCCC3)cc2)cc1 [Example 212] | –
75 | 70 nM | NC(=O)C1CCCN(CCOc2ccc(Cc3ccccc3)cc2)C1 (stereo not shown) [Example 243] | –
76 | 7000 nM | c1ccc(Cc2ccc(OCCN3CCC4(CC3)OCCO4)cc2)cc1 [Example 246] | –
77 | 3200 nM | CCOC(=O)CCNC(=O)C1CCN(CCOc2ccc(Cc3ccccc3)cc2)CC1 [Example 249] | –
78 | 50000 nM | CCOC(=O)C1CCCN(CCOc2ccc(Cc3ccccc3)cc2)C1 (stereo not shown) [Example 270] | –
79 | 330 nM | c1ccc(Cc2cnc3c(c2)CC(CN2CCCC2)O3)cc1 (stereo not shown) [Example 287] | –
80 | 43 nM | c1ccc(Oc2ccc3c(c2)CC(CN2CCCC2)O3)cc1 (stereo not shown) [Example 289] | –
81 | 7 nM | c1ccc(Cc2ccc3c(c2)CCC(CN2CCCC2)O3)cc1 (stereo not shown) [Example 292] | –
82 | 440 nM | COC(=O)CC1CC2CC1N(CCOc1ccc(Cc3ccccc3)cc1)C2 (stereo not shown) [Example 307] | –
83 | 2500 nM and 4200 nM | COC(=O)CNCCCOc1ccc(Cc2ccccc2)cc1 [Example 318] | –
84 | 120 nM | c1ccc(Cc2ccc(OCCn3ccnc3)cc2)cc1 [Example 352] | –
85 | 750 nM | CC(CN1CCCCC1)Oc1ccc(Cc2ccccc2)cc1 (stereo not shown) [Example 403] | –
